SMILES strings stand for the structures. pIC50, pKd: −log10 of the molar value. A value given as a limit tells only on which side of the number the result lay.

In assay [1] the test system is GM-CSFR/JAK2/STAT5 pathway. Briefly: csTF-1 cell-based reporter assay. To be noted: Homo sapiens; csTF-1 cells, GM-CSF at 2 ng/mL, 4 hours; read-out: Cell Assay: CS TF-1 reporter assay IC50. As to the method:
csTF-1 Cell-Based Reporter Assay
csTF-1 cells are derived from the human erythroleukemia cell line that is growth dependent on GM-CSF and has an intact GM-CSFR/JAK2/STAT5 pathway. The cell line contains stably integrated beta-lactamase reporter gene under the control of the […] (irf 1) response element recognized by the activated transcription factor STATS. csTF-1 cells (Invitrogen K1219) were washed with assay media (97% OPTIMEM/0.5% dialyzed FBS/0.1 mM NEAA/1 mM Na pyr/P/S) and seeded in the same media at 5×10^5 cell/mL in T150 flask. After 16 hour incubation, cells were seeded at 2×10^5 cell/well in 50 μl volume, into Costar, clear bottom, 96-well assay plates. Serial dilutions of compounds were added to the plates with final DMSO concentration at 0.5% and GM-CSF at 2 ng/mL and the plates were then incubated at […] and 5% CO2 for 4 hours. The plates were brought to room temperature before adding Substrate Mixture according to manufacturer's protocol (Invitrogen, Catalog #K1085). The assay plates containing the substrate mixture were incubated in the dark at room temperature for 2 hours. Blue and green fluorescence was measured with excitation at 409 nm and emission at 460 nm (for blue) and excitation at 409 nm and emission at 530 nm (for green) using Spectra Max Gemini EM.
Background: Reporter assays use an easily measured gene product as a stand-in for the process of interest.

The next assay concerns the target T1, JAK2 (Homo sapiens, UniProt O60674).
T1 construct: made in house; host or cells: T7 phage display, or HEK-293 cells (alternative)
Briefly: Competition binding assay to determine Kd against JAK kinases: JAK2. From the text:
(§1) Competition Binding Assay to Determine Binding Constants (Kd) of the Compounds Against JAK Kinases
(§2) Competition binding assays used herein were developed, validated and performed as described in Fabian et al., Nature Biotechnology 2005, 23, 329-336. Kinases were produced as fusions to T7 phage (See, Fabian et al. or WO04/015142) or alternatively, the kinases were expressed in HEK-293 cells and subsequently tagged with DNA for PCR detection (See, WO08/005,310). For the binding assays, streptavidin-coated magnetic beads were treated with biotinylated affinity ligands for 30 min at rt to generate affinity resins. The liganded beads were blocked with excess biotin and washed with blocking buffer (SeaBlock (Pierce), 1% BSA, 0.05% Tween 20, 1 mM DTT) to remove unbound ligand and to reduce non-specific binding. Binding reactions were assembled by combining kinase, liganded affinity beads, and test compounds in 1× binding buffer (20% SeaBlock, 0.17×PBS, 0.05% Tween 20, 6 mM DTT). Test compounds were prepared as 100× stocks in DMSO and rapidly diluted into the aqueous environment. DMSO was added to control assays lacking a test compound. Primary screen interactions were performed in polypropylene 384-well plates in a final volume of 34 μL, while Kd determinations were performed in polystyrene 96-well plates in a final volume of 135 μL. The assay plates were incubated at room temperature with shaking for 1 hour, long enough for binding reactions to reach equilibrium, and the affinity beads were washed extensively with wash buffer (1×PBS, 0.05% Tween 20) to remove unbound protein. The beads were then resuspended in elution buffer (1×PBS, 0.05% Tween 20, 2 μM non-biotinylated affinity ligand) and incubated at room temperature with shaking for 30 min. The kinase concentration in the eluates was measured by quantitative PCR. Each kinase was tested individually against each compound. Kds were determined using eleven serial threefold dilutions. A selectivity score, which is a quantitative measure of selectivity of a compound against a panel of enzymes, may be calculated for a compound by dividing the number of enzymes for which a compound meets a set criteria, (for example, a binding constant of 100 nM or less), by the total number of enzymes tested.

The target of another assay is T2, JAK3 (Homo sapiens, UniProt P52333).
T2 construct: made in house; host or cells: T7 phage display, or HEK-293 cells (alternative)
T2 sequence (P52333 1-1124): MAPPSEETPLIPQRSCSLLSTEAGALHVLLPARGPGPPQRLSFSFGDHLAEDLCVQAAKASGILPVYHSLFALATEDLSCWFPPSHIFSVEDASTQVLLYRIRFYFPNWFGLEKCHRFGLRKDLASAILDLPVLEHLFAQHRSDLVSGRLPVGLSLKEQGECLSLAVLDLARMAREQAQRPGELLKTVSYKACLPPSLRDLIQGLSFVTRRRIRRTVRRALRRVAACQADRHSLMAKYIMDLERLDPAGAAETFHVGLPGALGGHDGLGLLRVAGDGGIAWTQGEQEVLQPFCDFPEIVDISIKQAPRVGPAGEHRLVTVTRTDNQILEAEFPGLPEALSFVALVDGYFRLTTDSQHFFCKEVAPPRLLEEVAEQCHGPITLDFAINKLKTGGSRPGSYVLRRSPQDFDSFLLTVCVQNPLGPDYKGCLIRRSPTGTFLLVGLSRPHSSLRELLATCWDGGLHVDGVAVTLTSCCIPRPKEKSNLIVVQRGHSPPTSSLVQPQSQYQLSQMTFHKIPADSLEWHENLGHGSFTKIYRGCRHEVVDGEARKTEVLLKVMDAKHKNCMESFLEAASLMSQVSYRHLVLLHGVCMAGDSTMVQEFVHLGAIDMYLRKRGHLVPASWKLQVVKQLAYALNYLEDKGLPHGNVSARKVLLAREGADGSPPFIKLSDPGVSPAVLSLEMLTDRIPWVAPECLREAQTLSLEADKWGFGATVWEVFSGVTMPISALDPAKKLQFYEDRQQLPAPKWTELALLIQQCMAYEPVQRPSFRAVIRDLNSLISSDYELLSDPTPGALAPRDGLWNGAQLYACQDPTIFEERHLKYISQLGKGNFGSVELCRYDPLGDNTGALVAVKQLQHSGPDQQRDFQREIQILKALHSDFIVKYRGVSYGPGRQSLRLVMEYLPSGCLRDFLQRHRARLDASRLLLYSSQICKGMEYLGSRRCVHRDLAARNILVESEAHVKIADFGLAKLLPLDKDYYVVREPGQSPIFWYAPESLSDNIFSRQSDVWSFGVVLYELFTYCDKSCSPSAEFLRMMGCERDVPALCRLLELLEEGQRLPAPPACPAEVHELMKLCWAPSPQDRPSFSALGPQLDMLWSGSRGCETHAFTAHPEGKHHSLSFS
Briefly: Competition binding assay to determine Kd against JAK kinases: JAK3.
Text: as §1, §2

The target of the next assay is T3, Tyk2 (Homo sapiens, UniProt P29597).
T3 construct: made in house; host or cells: T7 phage display, or HEK-293 cells (alternative)
T3 sequence (P29597 whole entry): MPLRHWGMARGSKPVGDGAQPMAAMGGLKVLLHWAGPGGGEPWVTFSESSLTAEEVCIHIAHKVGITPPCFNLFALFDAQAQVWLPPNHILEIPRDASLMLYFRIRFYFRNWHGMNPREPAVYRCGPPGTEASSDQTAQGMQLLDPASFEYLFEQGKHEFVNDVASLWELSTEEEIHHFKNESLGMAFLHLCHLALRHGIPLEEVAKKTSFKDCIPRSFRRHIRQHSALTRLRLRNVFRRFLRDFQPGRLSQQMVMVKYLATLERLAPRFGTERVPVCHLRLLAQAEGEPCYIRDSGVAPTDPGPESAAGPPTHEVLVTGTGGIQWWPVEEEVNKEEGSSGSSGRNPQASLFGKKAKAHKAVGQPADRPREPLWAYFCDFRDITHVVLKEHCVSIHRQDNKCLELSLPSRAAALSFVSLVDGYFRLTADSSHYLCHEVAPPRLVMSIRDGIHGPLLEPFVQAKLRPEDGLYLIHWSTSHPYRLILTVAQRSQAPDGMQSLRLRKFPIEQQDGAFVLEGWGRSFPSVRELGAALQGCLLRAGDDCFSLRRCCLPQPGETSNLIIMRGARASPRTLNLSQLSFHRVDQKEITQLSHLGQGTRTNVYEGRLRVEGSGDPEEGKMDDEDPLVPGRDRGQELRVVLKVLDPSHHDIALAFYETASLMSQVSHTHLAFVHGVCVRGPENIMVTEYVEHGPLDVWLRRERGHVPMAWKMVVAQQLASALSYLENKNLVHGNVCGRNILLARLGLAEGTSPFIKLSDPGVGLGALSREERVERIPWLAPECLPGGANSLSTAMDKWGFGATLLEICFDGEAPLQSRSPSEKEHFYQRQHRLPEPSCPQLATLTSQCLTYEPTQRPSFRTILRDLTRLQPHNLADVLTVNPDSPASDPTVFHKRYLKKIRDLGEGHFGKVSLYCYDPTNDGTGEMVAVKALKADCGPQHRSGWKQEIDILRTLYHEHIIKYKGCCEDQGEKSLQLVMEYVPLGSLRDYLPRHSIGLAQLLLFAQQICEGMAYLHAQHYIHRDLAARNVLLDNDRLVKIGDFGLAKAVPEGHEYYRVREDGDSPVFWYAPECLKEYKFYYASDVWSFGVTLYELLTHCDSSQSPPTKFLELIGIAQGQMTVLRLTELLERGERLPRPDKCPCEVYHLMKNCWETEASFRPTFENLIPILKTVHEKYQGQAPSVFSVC
Briefly: Competition binding assay to determine Kd against JAK kinases: Tyk2.
Text: as §1, §2

T1 sequence (O60674 whole entry): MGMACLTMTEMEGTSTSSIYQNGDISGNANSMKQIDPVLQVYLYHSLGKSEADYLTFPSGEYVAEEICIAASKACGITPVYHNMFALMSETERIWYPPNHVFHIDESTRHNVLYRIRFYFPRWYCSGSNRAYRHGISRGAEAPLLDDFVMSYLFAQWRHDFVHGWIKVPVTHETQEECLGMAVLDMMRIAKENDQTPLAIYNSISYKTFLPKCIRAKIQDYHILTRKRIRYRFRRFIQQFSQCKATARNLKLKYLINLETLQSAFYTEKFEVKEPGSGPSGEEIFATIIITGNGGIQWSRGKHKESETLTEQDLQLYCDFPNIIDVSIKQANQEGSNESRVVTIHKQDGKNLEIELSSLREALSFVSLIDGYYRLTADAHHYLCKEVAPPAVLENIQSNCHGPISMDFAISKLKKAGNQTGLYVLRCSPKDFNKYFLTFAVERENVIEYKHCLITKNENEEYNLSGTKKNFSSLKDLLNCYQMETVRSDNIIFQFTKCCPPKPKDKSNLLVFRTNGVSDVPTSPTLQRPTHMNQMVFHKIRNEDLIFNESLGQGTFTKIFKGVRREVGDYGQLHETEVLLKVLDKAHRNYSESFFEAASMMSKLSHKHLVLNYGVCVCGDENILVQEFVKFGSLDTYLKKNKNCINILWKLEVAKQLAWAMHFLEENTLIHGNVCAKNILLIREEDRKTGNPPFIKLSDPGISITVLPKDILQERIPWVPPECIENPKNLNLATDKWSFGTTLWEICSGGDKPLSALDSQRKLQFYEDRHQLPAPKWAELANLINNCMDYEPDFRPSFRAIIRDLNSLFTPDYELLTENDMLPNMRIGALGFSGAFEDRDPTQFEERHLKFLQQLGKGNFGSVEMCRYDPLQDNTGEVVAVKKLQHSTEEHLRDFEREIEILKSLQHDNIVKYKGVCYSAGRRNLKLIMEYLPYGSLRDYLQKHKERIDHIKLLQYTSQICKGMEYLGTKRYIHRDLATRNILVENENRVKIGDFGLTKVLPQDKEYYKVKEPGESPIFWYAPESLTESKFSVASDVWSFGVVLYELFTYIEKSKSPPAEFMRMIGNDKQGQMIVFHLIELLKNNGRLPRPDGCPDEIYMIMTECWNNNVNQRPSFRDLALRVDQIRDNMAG

One may read the pIC50 as −log10 of the IC50, conventionally taken in molar units. By pKd is commonly meant the Kd on a negative log10 scale, so that one unit is a factor of ten. Low values mean a high Kd, high ones a low Kd. For the molecule `COc1cccc2c(Nc3cc(C)[nH]n3)nc(C(F)(F)c3ccc(F)cn3)nc12` [Example 43, 2-(difluoro(5-fluoropyridin-2-yl)methyl)-8-methoxy-N-(5-methyl-1H-pyrazol-3-yl)quinazolin-4-amine], the pIC50 in assay [1] is not below 7.00. In addition, the pKd at JAK2 is not below 9.00; at JAK3, not below 8.00; at Tyk2, not below 8.00.
As to `Cc1cc(Nc2nc(C(F)(F)c3ccc(F)cn3)nc3c(NC=O)cccc23)n[nH]1` [Example 44, N-(2-(difluoro(5-fluoropyridin-2-yl)methyl)-4-((5-methyl-1H-pyrazol-3-yl)amino)quinazolin-8-yl)formamide], the pIC50 in assay [1] was not below 7.00. Besides, the pKd at JAK2 is not below 9.00; on JAK3 it was not below 8.00; on Tyk2 it was not below 8.00.
Regarding `Cc1cc(Nc2nc(C(F)(F)c3ccc(F)cn3)nc3c(C(=O)NC4COC4)cccc23)n[nH]1` [Example 45, 2-(difluoro(5-fluoropyridin-2-yl)methyl)-4-((5-methyl-1H-pyrazol-3-yl)amino)-N-(oxetan-3-yl)quinazoline-8-carboxamide], the pIC50 in assay [1] is not below 7.00. For the same molecule, the pKd at JAK2 was not below 9.00; at JAK3 it was not below 8.00; on Tyk2, not below 8.00.
Regarding `Cc1cc(Nc2nc(C(F)(F)c3ccc(F)cn3)nc3c(O)cccc23)n[nH]1` [Example 46, 2-(difluoro(5-fluoropyridin-2-yl)methyl)-4-((5-methyl-1H-pyrazol-3-yl)amino)quinazolin-8-ol], the pIC50 in assay [1] was less than 6.30. Also, the negative-log Kd (pKd) is not below 9.00 at JAK2, not below 8.00 at JAK3 and not below 8.00 on Tyk2.
In the case of `CC(=O)Nc1cccc2c(Nc3cc(C)[nH]n3)nc(C(F)(F)c3ccc(F)cn3)nc12` [Example 48, N-(2-(difluoro(5-fluoropyridin-2-yl)methyl)-4-((5-methyl-1H-pyrazol-3-yl)amino)quinazolin-8-yl)acetamide], the pIC50 in assay [1] is not below 7.00. Besides, the figures for the pKd on JAK2, at JAK3 and on Tyk2 were not below 9.00, not below 8.00 and not below 8.00, respectively.
As to `Cc1cc(Nc2nc(C(F)(F)c3ccc(F)cn3)nc3c([N+](=O)[O-])cccc23)n[nH]1` [Example 49, 2-(difluoro(5-fluoropyridin-2-yl)methyl)-N-(5-methyl-1H-pyrazol-3-yl)-8-nitroquinazolin-4-amine], in assay [1], the pIC50 is 6.30 to 7.00. Moreover, the pKd on JAK2 is 8.00 to 9.00; at JAK3 it was 7.00 to 8.00; at Tyk2, 7.00 to 8.00.
On to `Cc1cc(Nc2nc(C(F)(F)c3ccc(F)cn3)nc3c(N)cccc23)n[nH]1` [Example 50, 2-(difluoro(5-fluoropyridin-2-yl)methyl)-N4-(5-methyl-1H-pyrazol-3-yl)quinazoline-4,8-diamine], for which, in assay [1], the negative logarithm of the IC50 (pIC50) is not below 7.00. Moreover, the pKd on JAK2 is not below 9.00; at JAK3, not below 8.00; at Tyk2 it was not below 8.00.
In the case of `Cc1cc(Nc2nc(C(F)(F)c3ccc(F)cn3)nc3c(C4CC4)cccc23)n[nH]1` [Example 51, 8-cyclopropyl-2-(difluoro(5-fluoropyridin-2-yl)methyl)-N-(5-methyl-1H-pyrazol-3-yl)quinazolin-4-amine], in assay [1], the pIC50 was 6.30 to 7.00. Besides, the pKd on JAK2 was not below 9.00; at JAK3 it was 7.00 to 8.00; at Tyk2 it was not below 8.00.
`Cc1cc(Nc2nc(C(F)(F)c3ccc(F)cn3)nc3c(NS(C)(=O)=O)cccc23)n[nH]1` [Example 52, N-(2-(difluoro(5-fluoropyridin-2-yl)methyl)-4-((5-methyl-1H-pyrazol-3-yl)amino)quinazolin-8-yl)methanesulfonamide]: in assay [1], the pIC50 was not below 7.00. Moreover, the results for the pKd on JAK2, at JAK3 and at Tyk2 were not below 9.00, not below 8.00 and not below 8.00, respectively.
With `Cc1cc(Nc2nc(C(F)(F)c3ccc(F)cn3)nc3c(C(=O)O)cccc23)n[nH]1` [Example 53, 2-(difluoro(5-fluoropyridin-2-yl)methyl)-4-((5-methyl-1H-pyrazol-3-yl)amino)quinazoline-8-carboxylic acid], the pIC50 in assay [1] is 6.30 to 7.00. The pKd on JAK2 is not below 9.00; at JAK3, not below 8.00; on Tyk2 it was not below 8.00.

Values taken from US8633207B2, “Quinazoline compounds and methods of use thereof” (Ambit Biosciences Corporation, priority 2010, dated 2014).
